pIC50, pKi: −log10 of the molar value.
How the values were obtained:
Neuraminidase [1] = molecular target: T1, Neuraminidase (Influenza A virus, UniProt B4URF0); assay: Inhibition of Influenza A virus (A/Indonesia/5/2005(H5N1)) […] recombinant neuraminidase using 2'-(4-methylumbelliferyl)-alpha-D-N-acetylneuraminic acid as substrate after 1 hr by fluorescence assay
Influenza A virus [2] = assay: Antiviral activity against Influenza A virus (A/Indonesia/5/2005(H5N1)) […] infected in MDCK cells assessed as protective rate against virus-induced cytopathic effect at 4 uM after 2 days by neutral red uptake assay; assay type: functional
Neuraminidase [3] = molecular target: T1, Neuraminidase; assay: Inhibition of Influenza A virus (A/Sydney/5/97(H3N2)) recombinant neuraminidase using 2'-(4- methylumbelliferyl)-alpha-D-N-acetylneuraminic acid as substrate after 1 hr by fluorescence assay; parameters: species or system Influenza A virus (A/Sydney/5/1997(H3N2))
Influenza A virus [4] = assay: Antiviral activity against Influenza A virus (A/Indonesia/5/2005(H5N1)) […] infected in MDCK cells assessed as protective rate against virus-induced cytopathic effect at 5 uM after 2 days by neutral red uptake assay; assay type: functional
in vivo [5] = conditions: Sprague-Dawley, rat, po, 10 mg/kg
[6] = Volume of distribution in Sprague-Dawley rat at 2 mg/kg, iv; assay type: ADME, organism-based; parameters: dose 2 mg/kg, route intravenous; conditions: in vivo
in vivo [7] = conditions: Sprague-Dawley, rat, po, 10 mg/kg; remark: listed apart in the source
in vivo [8] = conditions: Sprague-Dawley, rat, iv, 2 mg/kg
[9] = Clearance in Sprague-Dawley rat at 2 mg/kg, iv; assay type: ADME, organism-based; parameters: dose 2 mg/kg, route intravenous; conditions: in vivo
in vivo [10] = conditions: Sprague-Dawley, rat, plasma, iv, 10 mg/kg
in vivo [11] = conditions: Sprague-Dawley, rat, plasma, po, 10 mg/kg

T1 sequence (B4URF0 whole entry): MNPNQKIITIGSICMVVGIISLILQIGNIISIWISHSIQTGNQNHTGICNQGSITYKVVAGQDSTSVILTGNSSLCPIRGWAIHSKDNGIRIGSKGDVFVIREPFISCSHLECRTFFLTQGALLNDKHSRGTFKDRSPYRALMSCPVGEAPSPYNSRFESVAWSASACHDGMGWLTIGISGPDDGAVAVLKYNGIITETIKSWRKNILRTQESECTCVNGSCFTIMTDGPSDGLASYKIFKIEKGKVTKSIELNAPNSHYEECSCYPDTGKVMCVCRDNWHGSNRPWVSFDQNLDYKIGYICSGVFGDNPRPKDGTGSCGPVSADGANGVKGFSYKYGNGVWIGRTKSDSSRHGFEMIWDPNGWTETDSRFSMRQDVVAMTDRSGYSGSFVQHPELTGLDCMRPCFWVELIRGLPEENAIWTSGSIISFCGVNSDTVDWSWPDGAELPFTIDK

SMILES | pIC50 (Neuraminidase [1]) | Activity (Influenza A virus [2]) | pIC50 (Neuraminidase [3]) | Activity (Influenza A virus [4]) | also measured
CC(=O)N[C@H]1[C@H]([C@H](O)[C@H](O)CO)OC(C(=O)O)=C[C@@H]1N1CCC2(CC1)OCCO2 | 3.13 | 0% | 3.29 |  | 
COc1ccccc1NC(=S)N[C@H]1C=C(C(=O)O)O[C@@H]([C@H](O)[C@H](O)CO)[C@@H]1NC(C)=O | 3.24 |  | 4.05 | 11.7% | 
CC(=O)N[C@H]1[C@H]([C@H](O)[C@H](O)CO)OC(C(=O)O)=C[C@@H]1NC(=S)Nc1cccc2ccccc12 | 3.05 |  | 3.17 | 0% | 
CC(=O)N[C@H]1[C@H]([C@H](O)[C@H](O)CO)OC(C(=O)O)=C[C@@H]1NC(=O)N[C@@H](C)C(=O)O | 3.16 | 0% | 3.18 |  | 
CC(=O)N[C@H]1[C@H]([C@H](O)[C@H](O)CO)OC(C(=O)O)=C[C@@H]1NC(=S)Nc1ccc(C(F)(F)F)cc1 | < 3.00 |  | 3.05 | 34.4% | 
CC(=O)N[C@H]1[C@H]([C@H](O)[C@H](O)CO)OC(C(=O)O)=C[C@@H]1N1CCN(c2ccccc2)CC1 | 3.12 |  | 3.08 |  | 
COc1ccc(NC(=O)N[C@H]2C=C(C(=O)O)O[C@@H]([C@H](O)[C@H](O)CO)[C@@H]2NC(C)=O)cc1 | 3.04 |  | 3.07 | 6.9% | 
CC(=O)N[C@H]1[C@H]([C@H](O)[C@H](O)CO)OC(C(=O)O)=C[C@@H]1NC(=S)NC1CC1 | 3.53 | 11.3% | 3.26 |  | 
CC(=O)N[C@H]1[C@H]([C@H](O)[C@H](O)CO)OC(C(=O)O)=C[C@@H]1N1CCCC(C(=O)O)C1 (some centres undefined) | 3.27 |  | 3.30 |  | 
CC(=O)N[C@H]1[C@H]([C@H](O)[C@H](O)CO)OC(C(=O)O)=C[C@@H]1NC(=O)NCC(=O)NCC(=O)O | 4.15 | 37.1% | 4.16 |  | 
CC(=O)N[C@H]1[C@H]([C@H](O)[C@H](O)CO)OC(C(=O)O)=C[C@@H]1NC(=O)N[C@H](C(=O)O)[C@@H](C)O | 3.41 | 0% | 3.31 |  | 
CC(=O)N[C@H]1[C@H]([C@H](O)[C@H](O)CO)OC(C(=O)O)=C[C@@H]1NC(=S)Nc1cccc(C(F)(F)F)c1 | < 3.00 |  | < 3.00 | 0% | 
CC(=O)N[C@H]1[C@H]([C@H](O)[C@H](O)CO)OC(C(=O)O)=C[C@@H]1NC(=O)Nc1ccc(Cl)cc1 | < 3.00 |  | < 3.00 | 0% | 
CCCCNC(=S)N[C@H]1C=C(C(=O)O)O[C@@H]([C@H](O)[C@H](O)CO)[C@@H]1NC(C)=O | 4.67 | 32.6% | 4.19 |  | 
CC(=O)N[C@H]1[C@H]([C@H](O)[C@H](O)CO)OC(C(=O)O)=C[C@@H]1NC(=N)N [ZANAMIVIR] |  |  |  | 67.2% | bioavailability (in vivo [5]): 2.7%; Vd [6]: 0.03 L/kg; half-life (in vivo [7]): 15 min; half-life (in vivo [8]): 24 min; clearance [9]: 1.42 mL/min/kg
CCNC(=S)N[C@H]1C=C(C(=O)O)O[C@@H]([C@H](O)[C@H](O)CO)[C@@H]1NC(C)=O | 3.53 | 27.8% | 3.21 |  | 
CSCC[C@H](NC(=O)N[C@H]1C=C(C(=O)O)O[C@@H]([C@H](O)[C@H](O)CO)[C@@H]1NC(C)=O)C(=O)O | 3.39 | 0% | 3.38 |  | 
CC(=O)N[C@H]1[C@H]([C@H](O)[C@H](O)CO)OC(C(=O)O)=C[C@@H]1NC(=O)Nc1ccc(F)cc1 | < 3.00 |  | < 3.00 | 0% | 
CC(=O)N[C@H]1[C@H]([C@H](O)[C@H](O)CO)OC(C(=O)O)=C[C@@H]1NC(=O)NCC(=O)O | 3.95 | 6.2% | 3.28 |  | 

SMILES | pIC50 (Neuraminidase [1]) | Activity (Influenza A virus [2]) | pIC50 (Neuraminidase [3]) | Activity (Influenza A virus [4]) | also measured
CC(=O)N[C@H]1[C@H]([C@H](O)[C@H](O)CO)OC(C(=O)O)=C[C@@H]1NC(=O)NCc1ccccc1 | < 3.00 |  | 3.15 |  | 
CC(=O)N[C@H]1[C@H]([C@H](O)[C@H](O)CO)OC(C(=O)O)=C[C@@H]1NC(=O)N[C@@H](Cc1ccccc1)C(=O)O | < 3.00 | 0% | 3.20 |  | 
CC(=O)N[C@H]1[C@H]([C@H](O)[C@H](O)CO)OC(C(=O)O)=C[C@@H]1NC(=O)N[C@@H](C)C(=O)NCC(=O)O | 3.90 |  | 3.99 |  | 
CC(=O)N[C@H]1[C@H]([C@H](O)[C@H](O)CO)OC(C(=O)O)=C[C@@H]1NC(=S)NCCCl | 4.17 | 20.3% | 4.00 |  | 
CC(=O)N[C@H]1[C@H]([C@H](O)[C@H](O)CO)OC(C(=O)O)=C[C@@H]1NC(=O)NCc1ccco1 | 4.42 |  | 5.18 | 58% | bioavailability (in vivo [5]): 2.73%; AUC(0-t) (in vivo [10]): 14000 ng·h/mL; half-life (in vivo [7]): 340 min; AUC(0-t) (in vivo [11]): 381 ng·h/mL
CC(=O)N[C@H]1[C@H]([C@H](O)[C@H](O)CO)OC(C(=O)O)=C[C@@H]1N1CCOCC1 | 3.29 | 26.8% | 3.25 |  | 
CC(=O)N[C@H]1[C@H]([C@H](O)[C@H](O)CO)OC(C(=O)O)=C[C@@H]1NC(=S)Nc1ccccc1 | < 3.00 |  | < 3.00 | 13.6% | 
CC(=O)N[C@H]1[C@H]([C@H](O)[C@H](O)CO)OC(C(=O)O)=C[C@@H]1NC(=S)Nc1ccccc1Br | < 3.00 |  | < 3.00 | 2.9% | 
CC(=O)N[C@H]1[C@H]([C@H](O)[C@H](O)CO)OC(C(=O)O)=C[C@@H]1NC(=O)N[C@@H](CCC(N)=O)C(=O)O | 3.99 |  | 4.24 |  | 
CC(=O)N[C@H]1[C@H]([C@H](O)[C@H](O)CO)OC(C(=O)O)=C[C@@H]1NC(=O)N[C@H](CC(N)=O)C(=O)O | 4.11 |  | 4.65 |  | 
CC(=O)N[C@H]1[C@H]([C@H](O)[C@H](O)CO)OC(C(=O)O)=C[C@@H]1NC(=S)Nc1ccccc1F | 3.40 |  | 4.24 | 14.8% | 
COc1cccc(NC(=S)N[C@H]2C=C(C(=O)O)O[C@@H]([C@H](O)[C@H](O)CO)[C@@H]2NC(C)=O)c1 | < 3.00 |  | < 3.00 | 0% | 
CC(=O)N[C@H]1[C@H]([C@H](O)[C@H](O)CO)OC(C(=O)O)=C[C@@H]1NC(=O)N[C@@H](CC(N)=O)C(=O)O | 5.57 | 8.7% | 6.24 |  | 
CC(=O)N[C@H]1[C@H]([C@H](O)[C@H](O)CO)OC(C(=O)O)=C[C@@H]1NC(=O)N1CCC[C@H]1C(=O)O | < 3.00 | 0% | 3.24 |  | 
CC(=O)N[C@H]1[C@H]([C@H](O)[C@H](O)CO)OC(C(=O)O)=C[C@@H]1NC(=O)Nc1ccc(C)cc1 | 3.03 |  | 3.11 | 0% | 
CC(=O)N[C@H]1[C@H]([C@H](O)[C@H](O)CO)OC(C(=O)O)=C(C/C=C/c2ccc(C)cc2)[C@@H]1O |  |  |  |  | pKi (Neuraminidase [1]): 5.14
CC(=O)N[C@H]1[C@H]([C@H](O)[C@H](O)CO)OC(C(=O)O)=C[C@@H]1N1CCN(c2cccc(C(F)(F)F)c2)CC1 | 3.91 |  | 3.57 |  | 
CC(=O)N[C@H]1[C@H]([C@H](O)[C@H](O)CO)OC(C(=O)O)=C[C@@H]1NC(=O)N[C@H](C(=O)O)C(C)C | 3.04 | 0% | 4.26 |  | 

Reference: ChEMBL document CHEMBL2040838, “Synthesis of C-4-modified zanamivir analogs as neuraminidase inhibitors and their anti-AIV activities” (Eur J Med Chem, 2012)
